Source: ChEMBL document CHEMBL4177599, “The antitubercular activity of various nitro(triazole/imidazole)-based compounds” (Bioorg Med Chem, 2017)
Converted amounts (≈) assume the structure as drawn.

What was measured:
[1] = test system: Mycobacterium tuberculosis; assay: Bactericidal activity against Mycobacterium tuberculosis H37Rv ATCC 27294 assessed as concentration required for 2 log kill after 21 days under aerobic condition by colony forming assay; format: functional; conditions: for MBC: H37Rv ATCC 27294, 504 h; for Activity: TDE = time-dependent effect
[2] = test system: Mycobacterium tuberculosis; assay: Antitubercular activity against luxABCDE expressing Mycobacterium tuberculosis H37Rv infected in human THP1 cells measured after 3 days by luminescence assay; format: functional, organism-based; conditions: THP-1, 72 h
[3] = test system: Mycobacterium tuberculosis; assay: Antitubercular activity against Mycobacterium tuberculosis H37Rv ATCC 27294 after 5 days under aerobic condition; format: functional, organism-based; conditions: for IC50 / IC90 / MIC: H37Rv ATCC 27294, 120 h; for Activity: TDE = time-dependent effect
[4] = test system: THP-1; assay: Cytotoxicity against human THP1 cells after 3 days by luminescence assay; format: cell-based; conditions: THP-1, 72 h
[5] = test system: Mycobacterium tuberculosis; assay: Antitubercular activity against Mycobacterium tuberculosis H37Rv ATCC 27294 after 10 days under low oxygen condition followed by incubation under aerobic condition for 28 hrs by LORA; format: functional, organism-based
[6] = test system: Vero; assay: Cytotoxicity against African green monkey Vero cells after 2 days by CellTiter-Glo luminescent cell viability assay; format: ADME, cell-based; conditions: Chlorocebus sabaeus, 48 h
[7] = test system: Mycobacterium tuberculosis; assay: Antitubercular activity against luxABCDE expressing Mycobacterium tuberculosis H37Rv infected in mouse J774 macrophages assessed as log reduction in bacterial colonies at 20 uM measured after 4 days under aerobic condition by luminescence assay; format: functional
[8] = test system: HepG2; assay: Cytotoxicity against human HepG2 cells at 100 uM after 3 days by CellTiter-Glo luminescent cell viability assay; format: cell-based; conditions: HepG2, 72 h
[9] = Half life in human liver S9 microsomes at 1 uM in absence of NADPH by LC-MS/MS analysis
[10] = Protein binding in human plasma at 5 uM after 4 hrs by LC-MS/MS analysis
[11] = Half life in human liver S9 microsomes at 1 uM in presence of NADPH by LC-MS/MS analysis
[12] = test system: Mycobacterium tuberculosis; assay: Potency index, ratio of compound MIC to metronidazole MIC for antitubercular activity against Mycobacterium tuberculosis H37Rv ATCC 27294 under low oxygen condition; format: functional
[13] = test system: L6; assay: Cytotoxicity against rat L6 cells after 2 days by CellTiter-Glo luminescent cell viability assay; format: ADME, cell-based; conditions: L6, 48 h
[14] = Solubility of compound in Middlebrook 7H9 broth media at pH 6.4 at 200 uM after 90 mins by UV-VIS spectrophotometric method; format: physicochemical; conditions: buffer, pH 6.4, 1.5 h
[15] = in vitro; conditions: human, Caco-2
Description: Apparent permeability of the compound across basolateral side to apical side in human Caco2 cells monolayer at 10 uM after 2 hrs by LC-MS/MS analysis

[16] = in vitro; conditions: human, Caco-2; remark: listed apart in the source
Description: Apparent permeability of the compound across apical side to basolateral side in human Caco2 cells monolayer at 10 uM after 2 hrs by LC-MS/MS analysis

[17] = in vitro; conditions: human, Caco-2; remark: listed apart in the source
Description: Efflux ratio of apparent permeability from basolateral to apical over apical to basolateral side in human Caco2 cells monolayer at 10 uM after 2 hrs by LC-MS/MS analysis

SMILES	MBC [1] [µM]	IC50 [2] [µM]	IC90 [2] [µM]	IC50 [3] [µM]	IC90 [3] [µM]	MIC [3] [µM]	IC50 [5] [µM]	IC90 [5] [µM]	MIC [5] [µM]	solubility [14]	also measured
O=C(Cn1cnc([N+](=O)[O-])n1)Nc1ccc(Cc2ccccc2)cc1	20 (≈ 6.75 µg/mL)	6.2	12	30	38	45 (≈ 15.2 µg/mL)	39	59	94 (≈ 31.7 µg/mL)		IC50 [4]: 47 µM
O=C(Cn1ccnc1[N+](=O)[O-])Nc1ccc(Oc2ccc(F)cc2)cc1	100 (≈ 35.6 µg/mL)			44	89	80 (≈ 28.5 µg/mL)	17	31	61 (≈ 21.7 µg/mL)		IC50 [6]: 56 µM; log(activity) [7]: 2.2
O=C(Cn1cnc([N+](=O)[O-])n1)N1CCN(Cc2ccc(C(F)(F)F)cc2)CC1	20 (≈ 7.97 µg/mL)	13	14	25	28	27 (≈ 10.8 µg/mL)	62	100	170 (≈ 67.7 µg/mL)		IC50 [8]: > 100 µM; half-life at 1 µM [9]: > 3 h; fraction unbound at 4 h, 5 µM [10]: 0.179; half-life at 1 µM [11]: > 3 h; IC50 [4]: > 50 µM
O=C(CCn1cnc([N+](=O)[O-])n1)Nc1cc(-c2ccc(F)cc2)on1				66	> 100	> 200					
O=C(CCn1cnc([N+](=O)[O-])n1)Nc1ccc(Oc2ccc(F)cc2)cc1	20 (≈ 7.43 µg/mL)	3.8	16	22 to 25	28 to 34	31 to 32 (≈ 11.5 to 11.9 µg/mL)	25	28	31 (≈ 11.5 µg/mL)		Ratio [12]: 6 - 9; IC50 [13]: 23 µM; Activity [1]: Tde; Activity [3]: Tde; IC50 [4]: 21 µM
O=C(Cn1cnc([N+](=O)[O-])n1)Nc1cc(-c2ccc(Cl)cc2)no1				96	140	200 (≈ 69.7 µg/mL)					
CC(=O)N1CCN(c2ccc(OCC3COC(Cn4ccnc4)(c4ccc(Cl)cc4Cl)O3)cc2)CC1 (stereo not given) [KETOCONAZOLE]										Insoluble	
N#Cc1ccc(-c2ccc(NC(=O)Cn3cnc([N+](=O)[O-])n3)cc2)cc1				> 200	> 200	> 200			52.1 (≈ 18.1 µg/mL)		
Cc1ccoc1C(=O)NCCCn1cnc([N+](=O)[O-])n1				41	54	54.5 (≈ 15.2 µg/mL)				Soluble	
O=C(NCCCn1cnc([N+](=O)[O-])n1)c1cc2ccccc2s1				107	> 200	> 200				Insoluble	
O=C(Cn1cnc([N+](=O)[O-])n1)N1CCN(C(c2ccccc2)c2ccc(Cl)cc2)CC1 (stereo not given)	100 (≈ 44.1 µg/mL)	8	11	38	48	50 (≈ 22 µg/mL)	51	57	65 (≈ 28.7 µg/mL)		IC50 [13]: 32 µM; IC50 [6]: 21 µM
O=C(CCn1cnc([N+](=O)[O-])n1)Nc1ccc(Oc2ccccc2)cc1	20 (≈ 7.07 µg/mL)	5	17	28 to 32	39 to 45	48 (≈ 17 µg/mL)	32	49	81 (≈ 28.6 µg/mL)		IC50 [13]: 32 µM; Activity [1]: Tde; Activity [3]: Tde; IC50 [4]: 33 µM
Cc1nc([N+](=O)[O-])cn1CCCNC(=O)c1sc2ccccc2c1Cl				175	> 200	> 200				Soluble	
O=C(Cn1cnc([N+](=O)[O-])n1)Nc1ccc(N2CCCCC2)cc1	20 (≈ 6.61 µg/mL)	11	25	29	46	48 (≈ 15.9 µg/mL)	99	110	120 (≈ 39.6 µg/mL)		Papp B→A at 2 h, 10 µM [15]: 27 ×10⁻⁶ cm/s; IC50 [8]: > 100 µM; Papp A→B at 2 h, 10 µM [16]: 38.4 ×10⁻⁶ cm/s; efflux ratio at 2 h, 10 µM [17]: 0.7; half-life at 1 µM [9]: > 3 h; fraction unbound at 4 h, 5 µM [10]: 0.233; half-life at 1 µM [11]: 2.68 h; IC50 [4]: > 50 µM
CN[C@@H]1C[C@H]2O[C@@](C)([C@@H]1OC)n1c3ccccc3c3c4c(c5c6ccccc6n2c5c31)C(=O)NC4 [STAUROSPORINE]											IC50 [8]: 0.018 µM
O=C(CCCN1CCC(O)(c2ccc(Cl)cc2)CC1)c1ccc(F)cc1 [HALOPERIDOL]										Insoluble	
O=C(CCn1cnc([N+](=O)[O-])n1)Nc1ccc(Oc2ccc(Cl)cc2)cc1	20 (≈ 7.76 µg/mL)	3.4	10	15 to 22	22 to 24	24 to 26 (≈ 9.31 to 10.1 µg/mL)	25	27	30 (≈ 11.6 µg/mL)		Ratio [12]: 6 - 9; IC50 [13]: 17 µM; Activity [1]: Tde; Activity [3]: Tde; IC50 [4]: 14 µM
Cc1nc([N+](=O)[O-])cn1CCCNC(=O)c1cc2ccccc2s1				> 200	> 200	> 200				Soluble	
CO[C@H]1/C=C/O[C@@]2(C)Oc3c(C)c(O)c4c(O)c(c(/C=N/N5CCN(C)CC5)c(O)c4c3C2=O)NC(=O)/C(C)=C\C=C\[C@H](C)[C@H](O)[C@@H](C)[C@@H](O)[C@@H](C)[C@H](OC(C)=O)[C@@H]1C [RIFAMPIN]				0.0046 to 0.0061	0.0049 to 0.014	0.015 to 0.033 (≈ 0.0123 to 0.0272 µg/mL)	0.00072 to 0.015	0.0037 to 0.049	0.022 to 0.18 (≈ 0.0181 to 0.148 µg/mL)		
CC(O)(Cn1cnc([N+](=O)[O-])n1)c1ccc(-c2ccc(C#N)cc2)cc1 (stereo not given)	100 (≈ 34.9 µg/mL)			55	125	> 200	73	176	> 200		IC50 [13]: 86 µM; IC50 [6]: 66 µM
Cc1ncc([N+](=O)[O-])n1CCO [METRONIDAZOLE]				> 200	> 200	> 200	14 to 36	33 to 82	88 to 200 (≈ 15.1 to 34.2 µg/mL)		
O=C(Cn1cnc([N+](=O)[O-])n1)Nc1cccc(-c2ccccc2)c1	20 (≈ 6.47 µg/mL)	11	12	27	39	31 (≈ 10 µg/mL)	30	46	73 (≈ 23.6 µg/mL)		IC50 [8]: 46 µM; half-life at 1 µM [9]: 1.32 h; fraction unbound at 4 h, 5 µM [10]: 0.028; IC50 [4]: > 50 µM
COCCc1ccc(OCC(O)CNC(C)C)cc1.COCCc1ccc(OCC(O)CNC(C)C)cc1.O=C(O)/C=C/C(=O)O (racemic) [METOPROLOL FUMARATE]										Soluble	
O=C(Cn1cnc([N+](=O)[O-])n1)Nc1nc(-c2ccc(Cl)cc2)cs1				34.2	34.9	34.9 (≈ 12.7 µg/mL)				Insoluble	
